# Measured values as given in patent US5470862A, “Substituted pyrazolyl compounds and methods employing such compounds” (Ohmeda Pharmaceutical Products Division Inc., priority 1995, dated 1995).
# Tested on: rats
# Experiment: Loss of righting after intravenous administration (rat)
# Type: in vivo
# Details: 20 min; rat (asterisk), intravenous (lateral tail vein), 20 minute observation; acid addition salts, values corrected for the salts
# Procedure: (§1) The acid addition salts of the compounds were dissolved in sterile water for injection, U.S.P, to form a solution, the concentration of which varied from 0.001 mg/ml to 5 mg/ml. Mice or rats were used for the tests. The test solution was administered to the test animal intravenously through the lateral tail vein. The animals were observed over a 20 minute period for loss of righting which is defined as the animal remaining in a supine position for 30 seconds. Five to ten mice and three to six rats were utilized for each dosage. The ED50 was calculated for each test compound either by linear regression or by a standard computer program utilizing the method of Litchfield and Wilcoxon, J. Pharmacol. Exp. Ther., vol. 96, p. 99 (1949). Since different animals were used, the ED50 values in Table 1 are those determined in the mouse except those values marked with an asterisk which were determined in the rat.
row,SMILES,ED50 [mg/kg]
1,CCOC(=O)c1cc(-c2coc(C)n2)n(C(C)c2ccccn2)n1 (stereo not drawn),8.8
2,CCOC(=O)c1cc(-c2ccc(N)cc2)nn1C(C)c1ccccn1 (stereo not drawn),2.7
3,CCOC(=O)c1cc(-c2ocnc2C)n(C(C)c2ccccn2)n1 (stereo not drawn),23.2
4,CCOC(=O)c1cc(-c2cccnc2)nn1Cc1ccccn1,7
5,CCOC(=O)c1cc(-c2ncco2)n(C(C)c2ccccn2)n1 (stereo not drawn),0.85
6,CCOC(=O)c1cc(-c2ccccc2)nn1C(C)c1ccccn1 (stereo not drawn),2.8
7,CCOC(=O)c1cc(-c2ccccn2)nn1Cc1ccccn1,5.1
8,CCCNC(=O)c1cc(C(=O)OCC)n(C(C)c2ccccn2)n1 (stereo not drawn) [CH3 / CONHC3 H7 / CO2 Et / N / CH],1.8
9,CCOC(=O)c1cc(-c2ccccc2N)nn1C(C)c1ccccn1 (stereo not drawn),0.81
10,CCOC(=O)c1cc(-c2nnco2)n(C(C)c2ccccn2)n1 (stereo not drawn),7.2
11,CCOC(=O)C(=O)c1cc(C(=O)OCC)n(C(C)c2ccccn2)n1 (stereo not drawn) [CH3 / COCO2 Et / CO2 Et / N / CH],2.86
12,CCOC(=O)c1cc(-c2cccc(N(C)C)c2)nn1C(C)c1ccccn1 (stereo not drawn),1.5
13,CCOC(=O)c1cc(-c2cc(C)no2)n(C(C)c2ccccn2)n1 (stereo not drawn),7.2
14,CCOC(=O)c1cc(-c2cccc(N)c2)nn1C(C)c1ccccn1 (stereo not drawn),0.53
15,CCOC(=O)c1cc(-c2ccn(C)c2)n(C(C)c2ccccn2)n1 (stereo not drawn),4.2
16,CCOC(=O)c1cc(-c2nc(C)no2)nn1C(C)c1ccccn1 (stereo not drawn),0.79
17,CCOC(=O)c1cc(-c2csc(-c3cccnc3)n2)nn1C(C)c1ccccn1 (stereo not drawn),1.1
18,CCOC(=O)c1cc(-c2ccccn2)nn1Cc1cccnc1,30.5
19,CCOC(=O)c1cc(-c2cnccn2)nn1C(C)c1ccccn1 (stereo not drawn),1.5
20,CCOC(=O)c1cc(-c2cc(C)no2)nn1C(C)c1ccccn1 (stereo not drawn),3.8
21,CCOC(=O)c1cc(-c2cccc(C)n2)nn1C(C)c1ccccn1 (stereo not drawn),1.6
22,CCOC(=O)c1cc(-c2coc(C)n2)nn1C(C)c1ccccn1 (stereo not drawn),1.2
23,CCOC(=O)c1cc(-c2ncc(C)o2)nn1C(C)c1ccccn1 (stereo not drawn),1.1
24,CCOC(=O)c1cc(-c2cccnc2)n(Cc2ccccn2)n1,17.7
25,CCOC(=O)c1cc(-c2ncc(C)o2)n(C(C)c2ccccn2)n1 (stereo not drawn),0.85

# Tested on: mice
# Experiment: Loss of righting after intravenous administration (mouse)
# Type: in vivo
# Details: 20 min, intravenous (lateral tail vein), 20 minute observation, acid addition salts, values corrected for the salts
# Procedure: as §1
row,SMILES,ED50 [mg/kg]
1,CCOC(=O)c1cc(-c2cccnc2)nn1C(C)c1ccccn1 (stereo not drawn),2.3
2,CCOC(=O)c1cc(C(=O)OCC)n(Cc2ccccn2)n1 [H / CO2 Et / CO2 Et / N / CH],6.9
3,CCOC(=O)c1cc(C(C)=O)n(C(C)c2ccccn2)n1 (stereo not drawn) [CH3 / CO2 Et / CH3 CO / N / CH],19.7
4,CCOC(=O)c1cc(C)nn1C(C)c1ccccn1 (stereo not drawn) [CH3 / CH3 / CO2 Et / N / CH],9
5,CCOC(=O)c1cc(-c2cc(C)on2)n(C(C)c2ccccn2)n1 (stereo not drawn),23.7
6,CCOC(=O)c1cc(C(C)=O)nn1C(C)c1ccccn1 (stereo not drawn) [CH3 / CH3 CO / CO2 Et / N / CH],4
7,CCOC(=O)c1cc(-c2cnco2)nn1C(C)c1ccccn1 (stereo not drawn),2.8
8,CCOC(=O)c1cc(-c2ccsc2)n(C(C)c2ccccn2)n1 (stereo not drawn),17.6
9,CCOC(=O)c1cc(C)n(C(C)c2ccccn2)n1 (stereo not drawn) [CH3 / CO2 Et / CH3 / N / CH],6.9
10,CCOC(=O)c1cc(C)nn1C(C)c1cccnc1 (stereo not drawn) [CH3 / CH3 / CO2 Et / CH / N],21.5
11,CCOC(=O)c1cc(-c2cc(C)on2)nn1C(C)c1ccccn1 (stereo not drawn),9.9
12,CCOC(=O)c1cc(-c2csc(-c3ccncc3)n2)nn1C(C)c1ccccn1 (stereo not drawn),5.7
13,"CCOC(=O)c1cc(C=O)nn1C(C)c1ccccn1 (stereo not drawn) [CH3 / CHO / CO2 Et / N / CH, 3-formyl-1-(1-(2-pyridinyl)ethyl)pyrazole-5-carboxylic acid ethyl ester]",9.9
14,CCOC(=O)c1cc(-c2cccs2)n(Cc2ccccn2)n1,14.3
15,CCOC(=O)c1cc(-c2ccncc2)nn1C(C)c1ccccn1 (stereo not drawn),12
16,CCOC(=O)c1cc(C(=O)OCC)n(Cc2cccnc2)n1 [H / CO2 Et / CO2 Et / CH / N],10.4
17,C=C(C)c1cc(C(=O)OCC)nn1C(C)c1ccccn1 (stereo not drawn),8.9
18,CCOC(=O)c1ccn(Cc2ccccn2)n1 [H / CO2 Et / H / N / CH],43.9
19,CCOC(=O)c1cc(C(=O)OCC)n(C(C)c2cccnc2)n1 (stereo not drawn) [CH3 / CO2 Et / CO2 Et / CH / N],8.6
20,CCOC(=O)c1cc(-c2cn3ccccc3n2)nn1C(C)c1ccccn1 (stereo not drawn),14.3
21,CCOC(=O)c1cc(-c2ccco2)n(Cc2ccccn2)n1,17.6
22,CCOC(=O)c1cc(COC(C)=O)n(C(C)c2ccccn2)n1 (stereo not drawn) [CH3 / CO2 Et / CH2 OCOCH3 / N / CH],28.3
23,CCOC(=O)c1cc(COC)n(C(C)c2ccccn2)n1 (stereo not drawn) [CH3 / CO2 Et / CH2 OCH3 / N / CH],19.1
24,CCOC(=O)c1ccnn1C(C)c1ccccn1 (stereo not drawn) [CH3 / H / CO2 Et / N / CH],31
25,CCOC(=O)c1cc(-c2nnco2)nn1C(C)c1ccccn1 (stereo not drawn),9

row,SMILES,ED50 [mg/kg]
1,CCOC(=O)c1cc(-c2cccn2C)n(C(C)c2ccccn2)n1 (stereo not drawn),6.2
2,CCOC(=O)c1cc(-c2ccccn2)nn1C(C)c1ccccn1 (stereo not drawn),3.5
3,CCOC(=O)c1cc(C)nn1Cc1ccccn1 [H / CH3 / CO2 Et / N / CH],17.4
4,CCOC(=O)c1cc(O)n(C(C)c2ccccn2)n1 (stereo not drawn) [CH3 / CO2 Et / OH / N / CH],31
5,CCOC(=O)c1cc(-c2ocnc2C)nn1C(C)c1ccccn1 (stereo not drawn),4.7
6,"CCOC(=O)c1cc(C(=O)OCC)n(C(C)c2ccccn2)n1 (stereo not drawn) [CH3 / CO2 Et / CO2 Et / N / CH, 1-[1-(2-pyridyl)ethyl]pyrazole-3,5-dicarboxylic acid diethyl ester]",1.4
7,CCOC(=O)c1cc(C)nn1Cc1cccnc1 [H / CH3 / CO2 Et / CH / N],25.1
8,CCOC(=O)c1cc(-c2cocn2)n(C(C)c2ccccn2)n1 (stereo not drawn),13.4
9,CCOC(=O)c1ccn(C(C)c2ccccn2)n1 (stereo not drawn) [CH3 / CO2 Et / H / N / CH],34.2
10,CCOC(=O)c1cc(-c2cccs2)n(C(C)c2ccccn2)n1 (stereo not drawn),17.6
11,CCOC(=O)c1cc(-c2cccs2)nn1Cc1ccccn1,28.3
12,CCOC(=O)c1nc(-c2cc(C(=O)OCC)n(C(C)c3ccccn3)n2)cs1 (stereo not drawn),13.6
13,CCOC(=O)c1cc(-c2ccccn2)n(C(C)c2ccccn2)n1 (stereo not drawn),17.5
14,CCOC(=O)c1cc(-c2csc(C(=O)OCC)n2)n(C(C)c2ccccn2)n1 (stereo not drawn),31.6
15,CCOC(=O)c1cc(-c2nccs2)nn1C(C)c1ccccn1 (stereo not drawn),3.2
16,CCOC(=O)c1cc(C)n(Cc2ccccn2)n1 [H / CO2 Et / CH3 / N / CH],37.7
17,CCOC(=O)c1cc(-c2ccco2)nn1C(C)c1ccccn1 (stereo not drawn),1.3
18,CCOC(=O)c1cc(-c2cocn2)nn1C(C)c1ccccn1 (stereo not drawn),7.7
19,CCOC(=O)c1cc(-c2ccco2)nn1Cc1ccccn1,8.9
20,CC(=O)OCc1cc(C)n(C(C)c2ccccn2)n1 (stereo not drawn) [CH3 / CH2 OCOCH3 / CH3 / N / CH],61.1
21,CCOC(=O)c1cc(C)n(C(C)c2cccnc2)n1 (stereo not drawn) [CH3 / CO2 Et / CH3 / CH / N],26.3
22,CCOC(=O)c1cc(CC)n(C(C)c2ccccn2)n1 (stereo not drawn) [CH3 / CO2 Et / CH2 CH3 / N / CH],9.4
23,CCOC(=O)c1cc(-c2csc(-c3ccncc3)n2)n(C(C)c2ccccn2)n1 (stereo not drawn),51.4
24,CCOC(=O)c1cc(CC)nn1C(C)c1ccccn1 (stereo not drawn) [CH3 / CH2 CH3 / CO2 Et / N / CH],9.4
25,CCOC(=O)c1cc(-c2cccn2C)nn1C(C)c1ccccn1 (stereo not drawn),0.95
